Measurements as given in paper PMC6151961 (Journal of Enzyme Inhibition and Medicinal Chemistry, 2018).
Like-named read-outs stand apart in the source and are kept apart here.

Key:
[1] = RP-LC chromatographic lipophilicity (logkw); type: physicochemical; conditions: chromatographic lipophilicity from gradient RP-LC, Luna RP-C18, water/acetonitrile with 0.1% formic acid, 30 °C
[2] = target: T1, CA IX (Homo sapiens, UniProt Q16790); assay: biochemical; conditions: read-out: pKi (exp.) (converted)
[3] = target: T1, CA IX; conditions: read-out: Ki, cited from earlier work
[4] = experimental value used for the QSPR model, library compounds (IDs A…, B…), equals log10 of Ki in nM
[5] = observed Ki of library compounds (IDs A…, B…), ref ChEMBL and BindingDB
[6] = library compounds with IDs A… and B…, from observed Ki (nM)
[7] = library compounds with IDs A… and B…, observed Ki, ref ChEMBL, BindingDB
[8] = experimental value from the library Ki (IDs A…, B…), values equal log10 of Ki in nM

| Ki [2] | Structure (SMILES) | logkw [1] | Ki [3] | further results |
| --- | --- | --- | --- | --- |
|  | Cc1cc(S(=O)(=O)NC(=N)Nc2cccc(S(N)(=O)=O)c2)c(SCc2cc3c(cc2Cl)OCO3)cc1Cl [C121] | 3.990 |  |  |
|  | Cc1cc(S(=O)(=O)NC(=N)Nc2nnc(S(N)(=O)=O)s2)c(SCc2cccc(C(F)(F)F)c2)cc1Cl [C104] | 4.600 |  |  |
|  | Cc1cc(S(=O)(=O)NC(=N)Nc2ccc(S(N)(=O)=O)cc2)c(SCc2ccccc2)cc1Cl [C94] | 4.050 |  |  |
| 16 nM | CC(=O)OC[C@@H]1O[C@@H](NS(N)(=O)=O)C[C@@H](OC(C)=O)[C@@H]1OC(C)=O [B0263] |  | 16 nM |  |
|  | COC(=O)C(=O)[C@H]1C(=O)Nc2ccccc21 [B0865] |  |  | Ki [2, 4]: 8020 nM; Ki [3, 5]: 8020 nM |
|  | NS(=O)(=O)Nc1ccc(NC(=O)Nc2ccc(Cl)cc2)cc1 [A0149] |  |  | Ki [2, 4]: 3 nM; Ki [3, 5]: 3 nM |
|  | NS(=O)(=O)c1ccc(NC(=S)Nc2ccc(C3c4ccc(O)cc4Oc4cc(O)ccc43)c(C(=O)O)c2)c(Cl)c1 [B0381] |  |  | Ki [2, 6]: 32 nM; Ki [3, 7]: 32 nM |
| 25 nM | CCCN(CCC)S(=O)(=O)c1ccc(C(=O)N[C@H](Cc2ccccc2)C(N)=O)cc1 [B0320] |  | 25 nM |  |
| 177 nM | COc1cc(/C=C\C(=O)OCCCCO[N+](=O)[O-])ccc1OC(=O)c1cccc(S(=O)(=O)Nc2nnc(S(N)(=O)=O)s2)c1 [B0659] |  | 177 nM |  |
|  | COC(=O)[C@H]1C[C@H](OS(N)(=O)=O)CN1S(=O)(=O)[C@H]1O[C@H](COC(C)=O)[C@@H](OC(C)=O)[C@H](OC(C)=O)[C@H]1OC(C)=O [B0015] |  |  | Ki [2, 6]: 2 nM; Ki [3, 7]: 2 nM |
| 130 nM | NS(=O)(=O)c1ccc(-c2cn([C@H]3O[C@H](CO)[C@@H](O[C@@H]4O[C@H](CO)[C@@H](O)[C@H](O)[C@@H]4O)[C@H](O)[C@@H]3O)nn2)cc1 [B0632] |  | 130 nM |  |
|  | NS(=O)(=O)c1ccc(-n2cc(/C=N/Nc3nc(-c4cc5cc(Cl)ccc5oc4=O)cs3)c(-c3ccc(F)cc3)n2)cc1 [B0019] |  |  | Ki [2, 8]: 2.5 nM; Ki [3, 5]: 2.5 nM |
|  | Cc1ncc(-c2ccc(S(N)(=O)=O)s2)o1 [B0222] |  |  | Ki [2, 8]: 11 nM; Ki [3, 5]: 11 nM |
| 8.49 nM | C[C@H](Nc1nc(NCc2ccc(S(N)(=O)=O)cc2)nc(N[C@H](C)C(=O)O)n1)C(=O)O [A0552] |  | 8.5 nM |  |
|  | Cc1cc(S(=O)(=O)NC(=N)Nc2ccccc2S(N)(=O)=O)c(SCc2cc(=O)[nH]c3ccccc23)cc1Cl [C117] | 3.870 |  |  |
| 295 nM | Cc1cccc(/C=N/CCc2ccc(S(N)(=O)=O)cc2)c1O [B0709] |  | 295 nM |  |

| Ki [2] | Structure (SMILES) | logkw [1] | Ki [3] | further results |
| --- | --- | --- | --- | --- |
|  | Cc1cc(S(=O)(=O)NC(=N)Nc2cccc(S(N)(=O)=O)c2)c(SCc2cccc(C(F)(F)F)c2)cc1Cl [C101] | 4.470 |  |  |
|  | Cc1cc(S(=O)(=O)NC(=N)NNc2ccc(S(N)(=O)=O)cc2)c(SCc2cccc3ccccc23)cc1Cl [C113] | 3.830 |  |  |
| 24 nM | NS(=O)(=O)c1ccc(C(=O)NNC(=O)Nc2ccc([C@]34C[C@H]5C[C@H](C[C@H](C5)C3)C4)cc2)cc1 [A0952] |  | 24 nM |  |
|  | Cc1cc(S(=O)(=O)NC(=N)NNc2ccc(S(N)(=O)=O)cc2)c(SCc2cc3c(cc2Cl)OCO3)cc1Cl [C122] | 3.690 |  |  |
|  | COC(=O)[C@@H]1O[C@H](S(N)(=O)=O)[C@@H](OC(C)=O)[C@H](OC(C)=O)[C@@H]1OC(C)=O [B0808] |  |  | Ki [2, 4]: 4150 nM; Ki [3, 5]: 4150 nM |
|  | Cc1cc(S(=O)(=O)NC(=N)Nc2ccc(S(N)(=O)=O)cc2)c(SCc2cccc(C(F)(F)F)c2)cc1Cl [C100] | 4.530 |  |  |
|  | Oc1cc(O)c2c(c1)O[C@@H](c1ccc(O)c(O)c1)[C@H](O)C2 [B0819] |  |  | Ki [2, 6]: 5040 nM; Ki [3, 7]: 5030 nM |
|  | NS(=O)(=O)c1ccc(N2C(=O)/C(=C\c3coc4ccccc4c3=O)N=C2c2ccccc2)cc1 [B0301] |  |  | Ki [2, 6]: 23 nM; Ki [3, 7]: 23 nM |
|  | Cc1cc(S(=O)(=O)NC(=N)Nc2ccc(S(N)(=O)=O)cc2)c(SCc2cccc3ccccc23)cc1Cl [C111] | 3.900 |  |  |
| 91 nM | NOS(=O)(=O)N[C@H]1C=C[C@H](O)CO1 [A1544] |  | 91 nM |  |
|  | Cc1cc(S(=O)(=O)NC(=N)NCc2ccc(S(N)(=O)=O)cc2)c(SCc2ccc(C(F)(F)F)cc2)cc1Cl [C109] | 4.590 |  |  |
| 65 nM | NS(=O)(=O)c1ccc(C(=O)OCc2cn([C@@H]3O[C@H](CO)[C@@H](O)[C@@H](O)[C@@H]3O)nn2)cc1 [B0491] |  | 65 nM |  |
|  | Cc1cc(S(=O)(=O)NC(=N)Nc2ccccc2S(N)(=O)=O)c(SCc2ccccc2)cc1Cl [C96] | 4.090 |  |  |
|  | CC(=O)O[C@@H]1O[C@@H](COS(N)(=O)=O)[C@H](OC(C)=O)[C@@H](OC(C)=O)[C@H]1OC(C)=O [B0512] |  |  | Ki [2, 4]: 72.9 nM; Ki [3, 5]: 73 nM |
| 107 nM | CC(=O)OC[C@@H]1O[C@@H](OCc2cn(-c3ccc(S(N)(=O)=O)cc3)nn2)[C@H](OC(C)=O)[C@@H](OC(C)=O)[C@H]1OC(C)=O [B0606] |  | 107 nM |  |
